Data set [1] has as its system PHTX-21c s.c. xenograft. Briefly: MLN0264 and CPT-11 in PHTX-21C s.c. xenografts (Study CPGC-11-EF04). As to conditions: PHTX-21c.
Data set [2] deals with PHTX-11c s.c. xenograft. Briefly: MLN0264 and CPT-11 in PHTX-11c s.c. xenografts (Study CPGC-12-EF01). As to conditions: W1-W3.
Data set [3] has as its system PHTX-17c s.c. xenograft. Briefly: MLN0264 and CPT-11 in PHTX-17C s.c. xenografts (Study CPGC-11-EF06). The class given is in vivo, CB-17 SCID mice. As to conditions: PHTX-17c. Here is the method: (§1) Tumor volume was calculated using the formula: […]
Data set [4] relates to PHTX-09c s.c. xenograft. Briefly: 5F9 vcMMAE and CPT-11 in PHTX-09C s.c. xenografts (Study CPGC-11-EF07).
The test system of data set [5] is PHTX-9c primary human colon tumor xenograft. Briefly: Single agent antitumor activity in PHTX-9c (PHTX-09c) primary human colon tumor xenograft. Here is the method:
Female CB-17 SCID mice (eight weeks old) were inoculated subcutaneously (SC) into the flank with PHTX-9c tumor fragments (2 mm×2 mm). Tumor growth was monitored twice per week using vernier calipers and the mean tumor volume was calculated using the formula (0.5×[length×width^2]). When the mean tumor volume reached approximately 150 mm^3 (Study A) or 160 mm^3 (Study B), animals were randomized into treatment groups (n=10/group for Study A and n=9/group for Study B).
Doses were administered on Days 1, 8, and 15 for the QW schedule and Days 1, 4, 8, 11, 15, and 18 for the BIW schedule. […] The equivalent dose of linker+MMAE is 4% of the 5F9-vcMMAE dose. These calculations are based on a mean 3.9 MMAE molecules per antibody and a free antibody molecular weight of 150 kD. Actual antibody molecular weight will vary slightly due to degree of glycosylation.
Tumor volume and body weight were measured twice weekly and were continued beyond the treatment period to measure regrowth kinetics, as evidenced by tumor growth delay (TGD). Tumor volume measurements were continued until tumor volume reached 10% of the body weight in a single mouse within a treatment group, at which time the group was terminated. The percentage of tumor growth inhibition (TGI) ([mean tumor volume of the control group—mean tumor volume of a treated group]/mean tumor volume of the control group; a T/C ratio) was determined on Day 20. The T/C ratios across a treatment group were compared to the T/C ratios of the control group using a two-tailed Welch's t-test.
The differences in the tumor growth trends over time between pairs of treatment groups were assessed using linear mixed effects regression models. These models account for the fact that each animal was measured at multiple time points. A separate model was fit for each comparison, and the areas under the curve (AUC) for each treatment group were calculated using the predicted values from the model. The percent decrease in AUC (dAUC) relative to the reference group was then calculated.
The 5F9 vcMMAE immunoconjugate was tested for single agent anti-tumor activity in the four primary human tumor xengraft models at varying concentrations in order to explore whether GCC expression levels played a role in tumor sensitivity. […] Free-MMAE was also used as a negative control.
(In general: In xenograft studies the graft and the host belong to different species.)

The test system of data set [6] is 293 GCC#2 tumors. Briefly: Efficacy study with auristatin conjugates in 293 GCC#2 tumors, q7d×4. The class given is in vivo, SCID mice. The arrangement: TGI / TGD: unit not given here. The following applies: for CR/PR: complete response/partial response; for T/C: treatment/control; for TGD: tumor growth delay. On the procedure: 293 GCC#2 tumor-bearing SCID mice were treated with 5F9 conjugates with vc MMAE, vcMMAF or mcMMAF at three doses in comparison with 209 conjugates of these toxins or with free toxins or vehicle control. Doses were administered iv on a q7d×4 schedule. Tumors were harvested at days 3, 7, 10, 13 and 17. […] Table 18 provides a summary of the results (TGI=tumor growth inhibition, T/C=treatment/control, TGD=tumor growth delay, CR/PR=complete response/partial response; p value=measure to judge statistical significance, NS=not significant).

Data set [7] in a line: Free-MMAE levels in serum vs. tumor after 5F9 vcMMAE. As to conditions: for AUCinf Serum / AUCinf Tumor: free MMAE after 5F9 vcMMAE; for Tumor/Serum: ratio of MMAE AUCinf. In kind it is in vivo, mice. On the set-up: AUCinf Serum / AUCinf Tumor: concentration or dose not given beside the values. Here is the method: Thus, the 5F9 vcMMAE immunoconjugate was confirmed to bind to GCC in the refractory PHTX-11c model. Free-MMAE levels in serum vs. tumor were also assessed to ensure the 5F9 vcMMAE immunoconjugate was being processed by the tumors (i.e., that the immunoconjugate was being internalized and that MMAE was being cleaved). A comparison of free-MMAE serum and tumor levels in the MMAE-refractory PHTX-11c model and the sensitive PHTX-09c and HEK293 GCC #2 models is shown Table 27 below. The presence of drug was confirmed within the tumors during dosing and post-dosing. Additionally, the free-MMAE levels in this tumor model were the same as the levels seen in tumor xenograft models that were sensitive to the immunoconjugate.

In data set [8] the test system is PHTX-21c s.c. xenograft. Briefly: MLN0264 and 5-Fluorouracil in PHTX-21C s.c. xenografts (Study CPGC-11-EF01). The class given is in vivo, CB-17 SCID mice. The following applies: for dAUC: 4 days off, reference vehicle. On the procedure:
as §1

For data set [9], the system named is PHTX-09c s.c. xenograft. Briefly: 5F9 vcMMAE and cisplatin in PHTX-09c s.c. xenografts (Study CPGC-11-EF05).
Setting [10] is: CPT-11 10 mg/kg D1, D2 per week.
[11] abbreviates: CPT-11 15 mg/kg D1, D2 per week.
Where [12] appears, read: CPT-11 10 mg/kg 2 d on 5 off i.v.
Where [13] appears, read: CPT-11 15 mg/kg 2 d on 5 off i.v.
Where [14] appears, read: PHTX-09c, CPT-11 10 mg/kg D1, 2 ×3 weeks.
Setting [15] is: Study A, 0.075 mg/kg IV QW × 3 doses.
Where [16] appears, read: Study A, 0.15 mg/kg IV QW × 3 doses.
Setting [17] is: Study B, 0.135 mg/kg IV QW × 3 doses.
Setting [18] is: Study B, 0.18 mg/kg IV QW × 3 doses.

The structures appear in SMILES notation. Square brackets hold non-standard residues; d marks the D form. Peptide text beside a SMILES is read from it. * marks the point of attachment. Dolaproine = CO[C@@H]([C@@H]1CCCN1)[C@@H](C)C(=O)O; Hexanoyl(6-maleimido) = O=C1C=CC(=O)N1CCCCCC(=O)*; Dil = CC[C@H](C)[C@H](NC)[C@@H](CC(=O)O)OC; X1 = C[C@@H](N*)[C@@H](O)c1ccccc1; NMeV = CN[C@H](C(=O)O)C(C)C Some results are limits rather than exact numbers.

As to `CCc1c2c(nc3ccc(OC(=O)N4CCC(N5CCCCC5)CC4)cc13)-c1cc3c(c(=O)n1C2)COC(=O)[C@]3(O)CC` [CPT-11, irinotecan], the “Days to 1000 mm^3” value in [1] (setting [10]) is given as greater than 15 days; in data set [1] (setting [11]), greater than 15 days; in data set [1] (CPT-11 30 mg/kg D1 QW), greater than 15 days; in data set [2] (setting [12]), greater than 18 days; in data set [2] (setting [13]) it was greater than 18 days; in data set [2] (CPT-11 30 mg/kg (D1 QW) i.v.) it was greater than 18 days. The “Days to 1000 mm^3” value in data set [3] (CPT-11 10 mg/kg QD 2on 5off) is reported as greater than 17 days; in data set [3] (CPT-11 15 mg/kg 2 on 5off) it was greater than 17 days; in data set [3] (CPT-11 30 mg/kg QW) it was greater than 17 days; in data set [4] (setting [14]) it was greater than 23 days. Besides, the T/C turned out to be 0.22 in data set [1] (setting [10]); 0.16 in data set [1] (setting [11]); 0.37 in [1] (CPT-11 30 mg/kg D1 QW); 0.34 in data set [2] (setting [12]); 0.31 in data set [2] (setting [13]); 0.39 in data set [2] (CPT-11 30 mg/kg (D1 QW) i.v.). For the same molecule, the T/C in data set [3] (CPT-11 10 mg/kg QD 2on 5off) is given as 0.28; in [3] (CPT-11 15 mg/kg 2 on 5off), 0.22; in [3] (CPT-11 30 mg/kg QW), 0.4; in [4] (setting [14]), 0.4. Moreover, the TGI in data set [1] (setting [10]) amounted to 78.4%; in data set [1] (setting [11]) it was 84.4%; in data set [1] (CPT-11 30 mg/kg D1 QW) it was 62.8%; in [2] (setting [12]), 65.9%; in data set [2] (setting [13]), 69.2%; in data set [2] (CPT-11 30 mg/kg (D1 QW) i.v.), 61.1%. Also, the TGI in data set [3] (CPT-11 10 mg/kg QD 2on 5off) was determined as 71.7%; in data set [3] (CPT-11 15 mg/kg 2 on 5off), 77.7%; in [3] (CPT-11 30 mg/kg QW), 60.5%; in data set [4] (setting [14]), 60.3%. In addition, the “single agent anti-tumor activity” value in data set [1] (the two lower doses administered (10 and 15 mg/kg)) is recorded as “moderate to high single agent activity”. Besides, in [4] (PHTX-09c (FIGS. 8B and 8C)), the single agent activity entry was “moderate”.
Turning to `CC[C@H](C)[C@@H]([C@@H](CC(=O)N1CCC[C@H]1[C@H](OC)[C@@H](C)C(=O)N[C@H](C)[C@@H](O)c1ccccc1)OC)N(C)C(=O)[C@@H](NC(=O)[C@@H](NC)C(C)C)C(C)C` [MMAE, monomethyl auristatin E, reference compound] (H-[NMeV]V[Dil][Dolaproine]-X1), the “BW change (mean maximum percent)” value in data set [5] (setting [15]) is 8.3%; in data set [5] (setting [16]), 10.8%; in [5] (setting [17]), 9.3%; in [5] (setting [18]), −2.3%. In addition, the “TGD” value in data set [5] (setting [15]) came to 1.0 days; in data set [5] (setting [16]) it was 2.0 days; in data set [5] (setting [17]) it was 0.2 days; in data set [5] (setting [18]), 8.6 days; in data set [6] (300 μg/kg iv q7d×4), 2. Besides, the TGI in data set [5] (Study B, 0.18 mg/kg IV QW × 3 doses, Day 20, 0.18 mg/kg) is 50.4 (p > 0.001) %; in data set [6] (300 μg/kg iv q7d×4), 35.6. Moreover, the “greatest maximum body weight loss during treatment period” value in data set [5] (Study B, day 7, 0.18 mg/kg MMAE group and 0.938 mg/kg 5F9-vcMMAE group) came out at 2.3%. Also, in data set [6] (300 μg/kg iv q7d×4), the CR/PR was 0. This molecule displayed a T/C in [6] (300 μg/kg iv q7d×4) of 0.64. In addition, the “AUCinf Serum” value came out at 56.3 ng·h/mL in [7] (293 GCC #2 model), 68.3 ng·h/mL in data set [7] (PHTX-9C model) and 44.1 ng·h/mL in data set [7] (PHTX-11C model). Further, the “AUCinf Tumor” value in data set [7] (293 GCC #2 model) was 24953 ng·h/mL; in data set [7] (PHTX-9C model) it was 8670 ng·h/mL; in [7] (PHTX-11C model), 13400 ng·h/mL. Besides, the Tumor/Serum came out at 443 in data set [7] (293 GCC #2 model), 127 in data set [7] (PHTX-9C model) and 304 in data set [7] (PHTX-11C model).
As for `O=c1[nH]cc(F)c(=O)[nH]1` [5-FU, 5-Fluorouracil, reference compound], the “single agent anti-tumor activity” value in [8] (PHTX-21c, 15 mg/kg and 25 mg/kg, 3 day on/4 day off) is on record as “relatively low anti-tumor activity”. The dAUC in [8] (group E: 5-Fu 15 mg/kg 3 days on) was determined as 44.1%; in [8] (group F: 5-Fu 25 mg/kg 3 days on), 52.6%.
`N.N.[Cl][Pt][Cl]` [cisplatin]: the figures for the “number of doses tolerated” value in data set [9] (4 mg/kg once weekly) and in [9] (6 mg/kg once weekly) were 2 doses and 1 dose, respectively. This molecule registered a body weight loss in [9] (PHTX-09c, cisplatin alone) greater than 15%. Moreover, the dAUC in [9] (group C: cisplatin 4 mg/kg QW x2, reference vehicle) was found to be 50.6%.
In data set [6] (150 μg/kg iv q7d×4), `CC[C@H](C)[C@@H]([C@@H](CC(=O)N1CCC[C@H]1[C@H](OC)[C@@H](C)C(=O)N[C@@H](Cc1ccccc1)C(=O)O)OC)N(C)C(=O)[C@@H](NC(=O)[C@H](C(C)C)N(C)C(=O)CCCCCN1C(=O)C=CC1=O)C(C)C` [Free mcMMAF, reference compound] ({Hexanoyl(6-maleimido)}-[NMeV]V[Dil][Dolaproine]F-OH) showed a TGI of −3.4, a CR/PR of 0, a T/C of 1.03 and a TGD of −1.3.

The values are drawn from patent US20140356383A1, “ADMINISTRATION OF AN ANTI-GCC ANTIBODY-DRUG CONJUGATE AND A DNA DAMAGING AGENT IN THE TREATMENT OF CANCER” (priority 2013, published 2014).
